Results from patent US8691799B2, “Materials and methods for treatment of cancer and identification of anti-cancer compounds” (priority 2001, dated 2014).

Assays:
Format in all cases: biochemical
JAK1 = experiment: JAK kinase autophosphorylation assay on immunoprecipitates (JAK1); details: immunoprecipitates from MDA-MB-468 or v-Src/NIH 3T3 cells; AG490 100 μM, PD180970 2 μM
Procedure: (§1) JAK Kinase Assays. A549, MDA-MB-468, and v-Src transformed NIH 3T3 cells were harvested, washed three times in PBS-V (10 mM sodium phosphate, pH 7.4, 137 mM NaCl, 1 mM sodium orthovanadate) then lysed for 30 min on ice in JAK kinase lysis buffer (25 mM Hepes, pH 7.4, 0.1% Triton-X-100, 0.5 mM DTT, 1 mM sodium orthovanadate, 1 mM PMSF, 10 μg/ml aprotinin, 10 μg/ml leupeptin). Samples were spun at high speed to clear, and 800-1000 μg of protein was immunoprecipitated per treatment condition with 50 ng of either JAK1 or JAK2 antibody (Santa Cruz Biotechnology) rocking overnight at 4° C. 25 μl of protein A/G PLUS agarose then was added and rocking continued for 1 hr at 4° C. Samples were spun to collect agarose pellet, and pellet washed twice in wash buffer (50 mM Hepes, pH 7.4, 0.1% Triton-X-100, 0.5 mM DTT, 150 mM NaCl) and once in phosphorylation buffer (50 mM Hepes, pH 7.4, 0.1% Triton-X-100, 0.5 mM DTI, 6.25 mM manganese chloride, 100 mM NaCl). Kinase reactions were performed at 30° C. for 15 min in a final volume of 100 μl of phosphorylation buffer. Samples were pretreated with DMSO control, JSI-124, and control compounds (AG490, 100 μM, and […], 2 μM) before addition of 20 μCi/sample y-[^32P]ATP. Reaction was halted using stop buffer (wash buffer plus 10 mM EDTA), samples spun to collect pellet, then pellet washed once with stop buffer and twice with wash buffer. Samples were then placed in 2×SDS-PAGE sample buffer, boiled at 100° C., and run on 8% SDS-PAGE gels to separate proteins. Autophosphorylation results were visualized by autoradiography.

JAK2 = biological target: T1, JAK2 (Homo sapiens, UniProt O60674); experiment: JAK kinase autophosphorylation assay on immunoprecipitates (JAK2); details: immunoprecipitates from A549, MDA-MB-468 or v-Src/NIH 3T3 cells; AG490 100 μM, PD180970 2 μM
T1 construct: Src, JAK1, and JAK2 were immunoprecipitated from either A549, MDA-MB-468, or v-Src/NIH 3T3 cells; endogenous in cells; host or cells: A549, MDA-MB-468, v-Src transformed NIH 3T3 (immunoprecipitates)
Procedure: as §1

Src = Src kinase autophosphorylation assay on immunoprecipitates; details: immunoprecipitates from A549, MDA-MB-468 or v-Src/NIH 3T3 cells
Procedure: Src Kinase Assay. A549, MDA-MB-468, and v-Src cells were harvested and lysed for 30 min on ice in RIPA150 buffer (10 mM Tris, pH 7.5, 150 mM NaCl, 10% glycerol, 5 mM EDTA, 1% Triton-X-100, 0.1% SDS, 100 μM sodium orthovanadate, 10 μg/ml aprotinin, 10 μg/ml leupeptin, 1 μg/ml antipain). Samples were spun at high speed to clear, then 1000 μg of protein were immunoprecipitated per treatment condition with 2 μg v-Src antibody (Ab-1, Oncogene Research Products, San Diego, Calif.) rocking overnight at 4° C. 25 μl of protein A/G PLUS agarose then was added and rocking continued for 4 hr at 4° C. Samples were spun to collect agarose pellet, and pellet washed three times in RIPA150 buffer, twice in RIPA10 buffer (10 mM Tris, pH 7.5, 10 mM NaCl, 10% glycerol, 5 mM EDTA, 1% Triton-X-100, 0.1% SDS, 100 μM sodium orthovanadate 10 μg/ml aprotinin, 10 μg/ml leupeptin, 1 μg/ml antipain), and three times in 40 mM Tris, pH 7.4. Pellet was then resuspended in 30 μl kinase reaction buffer (20 mM Tris, pH 7.4, 5 mM MgCl2) containing 10 μCi γ-[^32P]ATP. Inhibitors were preincubated for several minutes before the addition of the ATP. Kinase reactions were carried out at room temperature for 15 min. Reaction was stopped with the addition of 2×SDS-PAGE sample buffer. Samples were boiled and run on 10% SDS-PAGE gels. Autophosphorylation results were visualized by autoradiography.

T1 sequence (O60674 whole entry): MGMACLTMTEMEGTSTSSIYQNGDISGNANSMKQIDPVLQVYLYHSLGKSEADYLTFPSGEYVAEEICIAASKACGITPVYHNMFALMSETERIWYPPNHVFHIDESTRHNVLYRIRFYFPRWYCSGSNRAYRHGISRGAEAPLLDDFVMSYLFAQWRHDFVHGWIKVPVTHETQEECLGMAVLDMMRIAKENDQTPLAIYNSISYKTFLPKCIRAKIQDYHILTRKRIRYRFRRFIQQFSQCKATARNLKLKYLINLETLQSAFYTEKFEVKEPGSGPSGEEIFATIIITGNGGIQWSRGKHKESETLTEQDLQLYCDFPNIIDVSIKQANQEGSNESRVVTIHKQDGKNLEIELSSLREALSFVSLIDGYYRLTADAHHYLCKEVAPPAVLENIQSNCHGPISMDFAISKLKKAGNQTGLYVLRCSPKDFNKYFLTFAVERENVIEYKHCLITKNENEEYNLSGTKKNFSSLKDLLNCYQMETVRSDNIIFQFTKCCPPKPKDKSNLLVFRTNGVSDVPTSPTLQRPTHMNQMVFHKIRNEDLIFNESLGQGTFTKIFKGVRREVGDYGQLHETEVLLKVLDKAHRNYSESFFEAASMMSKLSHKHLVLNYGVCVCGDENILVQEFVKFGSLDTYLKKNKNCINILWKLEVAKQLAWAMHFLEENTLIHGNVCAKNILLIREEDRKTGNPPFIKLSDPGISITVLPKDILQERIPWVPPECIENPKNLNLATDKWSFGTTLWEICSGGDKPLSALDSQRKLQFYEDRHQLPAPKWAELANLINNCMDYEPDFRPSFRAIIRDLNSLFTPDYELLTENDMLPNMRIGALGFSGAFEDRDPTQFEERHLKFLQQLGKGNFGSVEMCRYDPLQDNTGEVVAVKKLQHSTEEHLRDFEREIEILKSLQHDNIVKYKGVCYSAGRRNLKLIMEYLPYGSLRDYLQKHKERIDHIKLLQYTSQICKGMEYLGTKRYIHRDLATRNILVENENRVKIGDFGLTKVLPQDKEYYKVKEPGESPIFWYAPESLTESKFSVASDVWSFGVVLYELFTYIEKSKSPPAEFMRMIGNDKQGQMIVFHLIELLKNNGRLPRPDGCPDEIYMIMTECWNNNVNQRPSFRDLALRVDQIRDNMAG

Cc1cc(Nc2ncc3cc(-c4c(Cl)cccc4Cl)c(=O)n(C)c3n2)ccc1F [PD180970]
JAK1 kinase activity (autophosphorylation) in vitro (JAK1): not JAK1 or JAK2 activities | JAK2 kinase activity (autophosphorylation) in vitro (JAK2): not JAK1 or JAK2 activities | Src kinase activity (autophosphorylation) in vitro (Src): inhibits Src

N#C/C(=C/c1ccc(O)c(O)c1)C(=O)NCc1ccccc1 [AG490]
JAK1 kinase activity (autophosphorylation) in vitro (JAK1): inhibited JAK1 and JAK2 | JAK2 kinase activity (autophosphorylation) in vitro (JAK2): inhibited JAK1 and JAK2 | Src kinase activity (autophosphorylation) in vitro (Src): not Src kinase activities
